# Test results published in the NIST ThermoML archive (doi:10.1016/j.jct.2011.06.015).
# Numbers after ± are expanded uncertainties.
# Assay: Boiling temperature at pressure P
# Settings: 101.33 kPa; Liquid; Ebulliometric method (Recirculating still)
row,Structure (SMILES),Boiling temperature at pressure P
1,O=S1(=O)CCCC1 [sulfolane],287.33 ± 0.05 °C
2,CC(C)c1ccccc1 [isopropylbenzene],152.40 ± 0.05 °C
3,CCc1ccccc1 [ethylbenzene],136.20 ± 0.05 °C
4,Cc1ccccc1 [toluene],110.80 ± 0.05 °C
